Assay results published in patent US20250179047A1, “5-[7-(3,4-DIHYDRO-1H-ISOQUINOLINE-2-CARBONYL)-1,2,3,4 TETRAHYDROISOQUINOLIN-6-YL]-1H-PYRROLE-3-CARBOXAMIDE DERIVATIVES, PHARMACEUTICAL COMPOSITIONS CONTAINING THEM AND THEIR USES AS PRO-APOPTOTIC AGENTS” (LES LABORATOIRES SERVIER, priority 2022, published 2025).

What was measured:
platelets = test: Platelet depletion in SCID mice; assay type: in vivo; conditions: 25 mg/kg IV bolus, vs control group; for Platelet loss (%) 6 h: 6 h after dosing; for Platelet loss (%) 24 h: 24 h after dosing
Experimental: (§1) Pharmacokinetic (PK) and platelet toxicity were investigated in SCID mice. Compounds were administered at 25 mg/kg by IV bolus, and formulated in PEG/Ethanol/NaCl 0.9% (40/10/50 v/v/v).
(§2) Blood samples (3 animals/time point and 3 time points/animal) were collected over 24 h after dosing: 0.05 h, 0.5 h, 1 h, 3 h, 6 h and 24 h for PK and 6 h and 24 h for platelets.
(§3) PK samples were analyzed by liquid chromatography using tandem mass spectrometry detection (LC-MS/MS) and platelet count (109/L) was measured using an hematology analyzer. Percentage of platelet loss was calculated at both time points (T+6 h and 24 h) as compared to a control group of 6 animals. PK parameters (Cinf and AUC24, which correspond to the concentration at the end of bolus administration and the area under curve over 24 h, respectively) were also determined using a non-compartmental analysis.

[1] = Pharmacokinetics in SCID mice; assay type: in vivo; conditions: 25 mg/kg IV bolus; for PK parameters Cinf: concentration at the end of bolus administration; for AUC: mouse, blood, area under curve over 24 h, read-out: PK parameters AUC24
Experimental: as §1, §2, §3

CYP3A4 = CYP3A4 (Homo sapiens (Human), UniProt P08684); test: CYP3A4 inhibition determination in hepatic human microsomes; assay type: in vitro ADME; conditions: LC/MS-MS of specific metabolite
Sequence of CYP3A4 (P08684 whole entry): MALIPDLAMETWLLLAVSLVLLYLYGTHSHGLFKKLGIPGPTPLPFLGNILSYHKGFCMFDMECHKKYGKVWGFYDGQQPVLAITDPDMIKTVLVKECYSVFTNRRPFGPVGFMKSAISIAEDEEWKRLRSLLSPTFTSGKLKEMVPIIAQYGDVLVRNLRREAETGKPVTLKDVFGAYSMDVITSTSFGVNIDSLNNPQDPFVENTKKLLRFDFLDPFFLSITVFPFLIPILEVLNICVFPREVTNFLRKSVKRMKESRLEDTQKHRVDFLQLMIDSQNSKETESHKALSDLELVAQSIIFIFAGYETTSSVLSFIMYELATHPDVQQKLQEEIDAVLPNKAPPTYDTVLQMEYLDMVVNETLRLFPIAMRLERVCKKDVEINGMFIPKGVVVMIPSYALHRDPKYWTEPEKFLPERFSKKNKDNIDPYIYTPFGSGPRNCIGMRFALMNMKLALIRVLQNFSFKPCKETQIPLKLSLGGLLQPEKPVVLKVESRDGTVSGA
Experimental: The inhibitory potential was determined on CYP3 Å4 enzyme using hepatic human microsomes. A range of concentrations (adapted based on the solubility) of the tested compound were incubated in presence of a substrate having a specific metabolite of CYP3 Å4 enzyme.
Then, the formation of the metabolite was quantified using LC/MS-MS analysis and a curve corresponding to the concentration of the metabolite in function of the concentration of the test compound allowed to the calculation of the IC50 value.

Structure (SMILES) | Platelet loss (%) 6 h (platelets) [%] | Platelet loss (%) 24 h (platelets) [%] | PK parameters Cinf [1] [µM] | AUC [1] [µM·h] | IC50 (CYP3A4) [µM]
Cc1c(N(C(=O)c2cc(-c3cc4c(cc3C(=O)N3Cc5ccccc5C[C@H]3C)CN(C(=O)Cc3ccc(OCCN5CCOCC5)cc3)CC4)n(C)c2C)c2ccc(O)cc2)cc(C#N)n1C [Example 21, N-(5-cyano-1,2-dimethyl-1H-pyrrol-3-yl)-N-(4-hydroxyphenyl)-1,2-dimethyl-5-{7-[(3R)-3-methyl-1,2,3,4-tetrahydroisoquinoline-2-carbonyl]-2-(2-{4-[2-(morpholin-4-yl)ethoxy]phenyl}acetyl)-1,2,3,4-tetrahydroisoquinolin-6-yl}-1H-pyrrole-3-carboxamide] | 58.4 | 30.3 | 21.0 | 12 | 6.2
Cc1c(N(C(=O)c2cc(-c3cc4c(cc3C(=O)N3Cc5ccccc5C[C@H]3C)CN(C(=O)Cc3ccc(OCCC5CCOCC5)cc3)CC4)n(C)c2C)c2ccc(O)cc2)cc(C#N)n1C [Example 27, N-(5-cyano-1,2-dimethyl-1H-pyrrol-3-yl)-N-(4-hydroxyphenyl)-1,2-dimethyl-5-{7-[(3R)-3-methyl-1,2,3,4-tetrahydroisoquinoline-2-carbonyl]-2-(2-{4-[2-(oxan-4-yl)ethoxy]phenyl}acetyl)-1,2,3,4-tetrahydroisoquinolin-6-yl}-1H-pyrrole-3-carboxamide] | 18.6 | 11.0 | 12.2 | 19.5 | 
Cc1c(N(C(=O)c2cc(-c3cc4c(cc3C(=O)N3Cc5ccccc5C[C@H]3CN3CCCCC3)CN(C(=O)Cc3ccc(OCCN5CCOCC5)cc3F)CC4)n(C)c2C)c2ccc(O)cc2)cc(C#N)n1C [Example 43, N-(5-cyano-1,2-dimethylpyrrol-3-yl)-5-[2-(2-{2-fluoro-4-[2-(morpholin-4-yl)ethoxy]phenyl}acetyl)-7-{[(3S)-3-(piperidin-1-ylmethyl)-3,4-dihydro-1H-isoquinolin-2-yl]carbonyl}-3,4-dihydro-1H-isoquinolin-6-yl]-N-(4-hydroxyphenyl)-1,2-dimethylpyrrole-3-carboxamide] | 25.3 | 9.2 | 15.4 | 16.9 | 
Cc1c(N(C(=O)c2cc(-c3cc4c(cc3C(=O)N3Cc5ccccc5C[C@H]3C)CN(C(=O)Cc3ccc(N5CCN6CCOC[C@@H]6C5)cc3F)CC4)n(C)c2C)c2ccc(O)cc2)cc(C#N)n1C [Example 45, 5-[2-(2-{4-[(9aS)-octahydropyrazino[2,1-c][1,4]oxazin-8-yl]-2-fluorophenyl}acetyl)-7-[(3R)-3-methyl-1,2,3,4-tetrahydroisoquinoline-2-carbonyl]-1,2,3,4-tetrahydroisoquinolin-6-yl]-N-(5-cyano-1,2-dimethyl-1H-pyrrol-3-yl)-N-(4-hydroxyphenyl)-1,2-dimethyl-1H-pyrrole-3-carboxamide] | 22.0 | 27.6 | 40.8 | 34.2 | 
COC[C@@H]1Cc2ccccc2CN1C(=O)c1cc2c(cc1-c1cc(C(=O)N(c3ccc(O)cc3)c3cc(C#N)n(C)c3C)c(C)n1C)CCN(C(=O)Cc1ccc(OCCC3CCOCC3)cc1F)C2 [Example 52, N-(5-cyano-1,2-dimethylpyrrol-3-yl)-5-[2-(2-{2-fluoro-4-[2-(oxan-4-yl)ethoxy]phenyl}acetyl)-7-{[(3S)-3-(methoxymethyl)-3,4-dihydro-1H-isoquinolin-2-yl]carbonyl}-3,4-dihydro-1H-isoquinolin-6-yl]-N-(4-hydroxyphenyl)-1,2-dimethylpyrrole-3-carboxamide] | 34.3 | 33.0 | 18.0 | 33.7 | 
Cc1c(N(C(=O)c2cc(-c3cc4c(cc3C(=O)N3Cc5ccccc5C[C@H]3C)CN(C(=O)Cc3ccc(OCCN5CCSCC5)cc3)CC4)n(C)c2C)c2ccc(O)cc2)cc(C#N)n1C [Example 55, N-(5-cyano-1,2-dimethyl-1H-pyrrol-3-yl)-N-(4-hydroxyphenyl)-1,2-dimethyl-5-{7-[(3R)-3-methyl-1,2,3,4-tetrahydroisoquinoline-2-carbonyl]-2-(2-{4-[2-(thiomorpholin-4-yl)ethoxy]phenyl}acetyl)-1,2,3,4-tetrahydroisoquinolin-6-yl}-1H-pyrrole-3-carboxamide] | 26.9 | 33.9 | 17.3 | 11.4 | 
Cc1c(C(=O)N(c2ccc(O)cc2)c2cc(C#N)n(C(F)F)c2C)cc(-c2cc3c(cc2C(=O)N2Cc4ccccc4C[C@H]2CN2CCCCC2)CN(C(=O)Cc2ccc(OCCN4CCOCC4)cc2)CC3)n1C [Example 77] |  |  |  |  | > 5
Cc1c(C(=O)N(c2ccc(O)cc2)c2cc(C#N)n(C(F)F)c2C)cc(-c2cc3c(cc2C(=O)N2Cc4ccccc4C[C@H]2CN2CCCCC2)CN(C(=O)Cc2ccc(OCCN4CCOCC4)cc2F)CC3)n1C [Example 78, N-[5-cyano-1-(difluoromethyl)-2-methylpyrrol-3-yl]-5-[2-(2-{2-fluoro-4-[2-(morpholin-4-yl)ethoxy]phenyl}acetyl)-7-{[(3S)-3-(piperidin-1-ylmethyl)-3,4-dihydro-1H-isoquinolin-2-yl]carbonyl}-3,4-dihydro-1H-isoquinolin-6-yl]-N-(4-hydroxyphenyl)-1,2-dimethylpyrrole-3-carboxamide] |  |  |  |  | > 5
